Measured values published in ChEMBL document CHEMBL3600349 (Bioorg Med Chem Lett, 2015).

How the values were obtained:
[1] = Lipophilicity, log P of the compound by HPLC analysis; format: physicochemical
[2] = Half life in rat liver microsomes; format: ADME
[3] = Intrinsic clearance in human hepatocytes assessed per 10^6 cells; format: ADME, cell-based, Hepatocyte; settings: read-out: CLH
U-937 = assay: Toxicity in human U937 cells assessed as first effect concentration for phospholipidosis by nile red uptake assay; format: cell-based
hERG (KCNH2) = hERG (KCNH2) (Homo sapiens, UniProt Q12809); assay: Inhibition of human ERG at 10 uM by patch clamp assay
Rattus norvegicus = assay: Antiobesity activity in diet-induced obese Wistar rat model assessed as reduction of body weight at 5 mg/kg, po qd after 4 weeks; format: functional; set-up: scale not given: the % may be the effect or the level left
[4] = biological target: Melanin-concentrating hormone receptor 1 (Homo sapiens, UniProt Q99705); assay: Displacement of [125I]-MCH from human MCH-R1 expressed in CHO/Galpha16 cells after 60 mins by scintillation counting; format: cell-based
Sequence of Melanin-concentrating hormone receptor 1 (Q99705 whole entry): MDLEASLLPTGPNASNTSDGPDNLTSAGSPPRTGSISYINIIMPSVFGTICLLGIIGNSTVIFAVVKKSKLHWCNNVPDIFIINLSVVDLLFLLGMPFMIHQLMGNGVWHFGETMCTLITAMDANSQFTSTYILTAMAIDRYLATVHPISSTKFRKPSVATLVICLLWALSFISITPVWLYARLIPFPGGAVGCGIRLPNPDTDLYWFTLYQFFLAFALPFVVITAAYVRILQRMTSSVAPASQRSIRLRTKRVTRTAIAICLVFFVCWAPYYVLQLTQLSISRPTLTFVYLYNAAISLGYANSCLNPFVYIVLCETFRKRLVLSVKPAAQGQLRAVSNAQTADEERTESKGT

Sequence of hERG (KCNH2) (Q12809 whole entry): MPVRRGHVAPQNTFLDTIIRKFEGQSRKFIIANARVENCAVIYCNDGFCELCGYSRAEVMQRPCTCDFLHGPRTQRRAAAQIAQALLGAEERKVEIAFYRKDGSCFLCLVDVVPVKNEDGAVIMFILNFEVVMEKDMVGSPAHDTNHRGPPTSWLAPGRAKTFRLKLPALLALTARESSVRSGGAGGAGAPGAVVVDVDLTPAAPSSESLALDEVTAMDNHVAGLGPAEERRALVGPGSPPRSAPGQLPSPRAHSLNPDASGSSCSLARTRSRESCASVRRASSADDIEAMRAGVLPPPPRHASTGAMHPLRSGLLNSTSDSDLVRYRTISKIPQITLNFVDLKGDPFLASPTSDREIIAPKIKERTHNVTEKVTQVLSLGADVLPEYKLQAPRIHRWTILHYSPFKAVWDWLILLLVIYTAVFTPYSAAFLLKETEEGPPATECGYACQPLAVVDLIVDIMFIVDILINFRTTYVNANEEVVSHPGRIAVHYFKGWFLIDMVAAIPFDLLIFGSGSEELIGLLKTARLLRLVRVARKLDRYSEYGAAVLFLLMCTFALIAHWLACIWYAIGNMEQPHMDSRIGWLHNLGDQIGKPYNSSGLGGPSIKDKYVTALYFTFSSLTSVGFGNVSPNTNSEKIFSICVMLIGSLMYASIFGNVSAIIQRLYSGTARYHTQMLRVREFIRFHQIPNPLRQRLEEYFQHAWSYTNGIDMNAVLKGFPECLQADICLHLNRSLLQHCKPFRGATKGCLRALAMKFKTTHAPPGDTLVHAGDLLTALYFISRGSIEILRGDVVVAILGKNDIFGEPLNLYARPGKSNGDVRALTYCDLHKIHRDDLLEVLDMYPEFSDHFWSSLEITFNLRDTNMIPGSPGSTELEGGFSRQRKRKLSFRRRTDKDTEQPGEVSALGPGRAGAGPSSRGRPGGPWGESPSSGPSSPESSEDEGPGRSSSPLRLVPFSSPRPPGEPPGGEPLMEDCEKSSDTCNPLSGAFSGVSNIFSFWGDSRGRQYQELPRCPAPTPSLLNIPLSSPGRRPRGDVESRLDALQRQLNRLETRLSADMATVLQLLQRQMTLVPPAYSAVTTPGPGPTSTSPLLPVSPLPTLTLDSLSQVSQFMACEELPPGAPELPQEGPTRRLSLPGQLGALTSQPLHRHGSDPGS

SMILES	logP [1]	half-life [2] [min]	hepatocyte CLint [3] [µL/min/1e6 cells]	Activity (U-937) [µM]	inhibition at 10 µM (hERG (KCNH2)) [%]	Activity (Rattus norvegicus) [%]	IC50 [4] [µM]
Cc1cc(CN(C)C)ccc1C(=O)Cn1ncc(OCc2ccc(Br)cn2)cc1=O	3.4	29	12	50			
Cc1cc(CN(C)C)ccc1C(=O)Cn1ccc(OCc2ccc(Br)cn2)cc1=O	2.8	45	21	50	42		
CC(C)CC(N(C)C)C1(c2ccc(Cl)cc2)CCC1 (stereo not given) [SIBUTRAMINE]						10.9	
CN(C)Cc1ccc(C(=O)Cn2ncc(OCc3ccc(Cl)cn3)cc2=O)cc1	2.9	14		50	39		0.025
CN(C)Cc1ccc(CCn2ccc(OCc3ccccc3)cc2=O)cc1	3.2	5		100			0.007
CN(C)Cc1ccc(C(=O)Cn2ccc(OCc3ccc(Br)cn3)cc2=O)cc1	2.5	32	66				0.028
Cc1cc(CN(C)C)ccc1C(=O)Cn1ccc(OCc2ccc(Cl)cn2)cc1=O	2.7	44	14	50	41		0.033
Cc1cc(CN(C)C)ccc1C(=O)Cn1ncc(OCc2ccccc2)cc1=O	3.8	15	4.8	50	88		0.0087
